# Data: US7322369B2, “Methods of detaching microorganisms from, or of inhibiting microbial attachment to, animal or poultry carcasses or seafood or parts thereof” (priority 2000, dated 2008)
# Counter-ions that a name gives are not always drawn.
# Assays:
# E. coli 0157 = experiment: Detachment of E. coli O157 in sandwich immunoassay (biosensor); type: binding; settings: sequential .75M Arginine, then 0.25 NaCl + 0.05%Tween 80
# [1] = system: bacteria bound to collagen; experiment: Biosensor detachment of bacteria bound to collagen; type: binding; settings: 0.5M arginine, phosphoric acid 0.1M, HCl 0.1M, citric acid 0.5M
# From the text: Use of Guanidine, creatine and arginine: Guanidine is a strong cytotoxic compound and can not be used in large quantities in food plants or slaughter operations. […] However, its use may be limited in the laboratory for analysis of food tissues. Therefore, a substitute for guanidine for detachment of pathogens from food carcasses was investigated. Guanidine is structurally related to creatine and arginine with a guanidyl moeity in their molecules. […] It has been shown that creatine hydrolyzes upon dissolution in water or buffer converting it to creatinine (methylglycocyamidine), a cyclic product and an end product of creatine metabolism. […] Arginine is an essential amino acid for children but not for adults. It is non-essential for adults because it can be derived from proteins in the diet. It is also inexpensive and can be obtained in bulk. Phosphoric acid (0.1M), HCl (0.1M) and citric acid (0.5M) had no effect in the detachment studies.
# Salmonella = experiment: Detachment of Salmonella in sandwich immunoassay (biosensor); type: binding; settings: sequential .75M Arginine, 6M Guanidine, 0.25 NaCl + 0.05% Tween 80
# bacteria = experiment: Bactericidal effect; type: cell-based; settings: pH 2.5
# From the text: The present invention also includes a method of quantifying microorganisms (e.g., bacteria) on carcasses or parts thereof. To enhance detachment of microorganisms (e.g., bacteria) for sampling: Treatment of animal and poultry carcass or seafood with polysulfated polysaccharides or carboxymethyl cellulose followed by guanidine or arginine or phosphate buffer and NaCl/non-ionic surfactant may enhance detachment of microorganisms for sampling and analytical purposes. […] At pH 4.8, live bacteria may be recovered with guanidine-HCl. At pH 2.5, guanidine-HCl is bactericidal. Therefore, its use may be limited in the laboratory (FIG. 4). For “in situ” sampling in the slaughter plants, arginine, or phosphate buffer and TWEEN-80/NaCl may be used in place of guanidine (FIG. 5).
# Collagen is the major component (40%) of the connective tissues. Results from the scanning electron microscopy studies illustrated the abundance of collagen strands in the fascia and connective tissues (Medina et al. (1999), Scanning Electron Microscopy Studies on Attachment of Escherichia Coli O157:H7 to Bovine Tissues, Presented at 1999 IFT Annual Meeting, Chicago, Ill., July 24-28; Poster at Gordon Research Conference on Molecular Mechanisms of Microbial Adhesions (Aug. 1-6, 1999) and at the 18th Annual Meeting of the Philippine-American Academy of Science and Engineering, Jekyll Is., Ga., Aug. 13-15, 1999). […]
# E. coli O157:H7 surface = experiment: Biosensor inhibition of collagen binding to E. coli O157:H7 surface; settings: 12 trials
# From the text: (§1) Biosensor Studies: A novel approach to study bacterial attachment to animal carcass was designed. The studies led to a development of a biosensor method to study binding of extracellular matrix components to the surface of immobilized bacteria. This novel approach utilized immobilized whole E. coli cells. This approach allowed the study of the binding of the lipopolysaccharides and other bacterial surface epitopes without altering their chemical structure. Conditions for immobilization and determination of the bacterial cell surface binding properties were initially assessed with anti-E. coli 0157:H7 antibody (Medina et al. (1997), Real-time analysis of antibody binding interactions with immobilized E. coli O157:H7, Biotechnology Techniques, Vol. 11 (3): 173-176). The bacterial surface was bound with an antibody produced against a heat-killed bacteria. […] The binding interactions of polysulfated polysaccharides such as heparan sulfate and iota, lambda and kappa carrageenans were determined with the extracellular matrix proteins (ECM) and the immobilized E. coli O157:H7 cells. […]
# E. coli and Salmonella = experiment: Biosensor kinetics of bacteria-collagen binding (E. coli and Salmonella pooled)
# From the text: as §1
# [2] = system: Salmonella typhimurium Sensor Surface; experiment: Biosensor inhibition of collagen binding to Salmonella typhimurium sensor surface; settings: 12 trials
compound,measurement,setting,value
"N=C(N)NCCC[C@H](N)C(=O)O [Arginine, arginine]",Surface RU removed from the sensor surface,E. coli 0157; CFU 0,99 RU
same,Surface RU removed from the sensor surface,E. coli 0157; CFU 10E + 3,237 RU
same,Surface RU removed from the sensor surface,E. coli 0157; CFU 10E + 4,249 RU
same,Surface RU removed from the sensor surface,E. coli 0157; CFU 10E + 5,275 RU
same,Surface RU removed from the sensor surface,E. coli 0157; CFU 10E + 6,299 RU
same,Surface RU removed from the sensor surface,E. coli 0157; CFU 10E + 7,405 RU
same,detachment of bacteria bound to collagen,[1],equally good or better than 1 M guanidine-HCl
same,Surface RU removed from the sensor surface,Salmonella; CFU 0,75 RU
same,Surface RU removed from the sensor surface,Salmonella; CFU 10E + 4,20 RU
same,Surface RU removed from the sensor surface,Salmonella; CFU 10E + 5,32 RU
same,Surface RU removed from the sensor surface,Salmonella; CFU 10E + 6,48 RU
same,Surface RU removed from the sensor surface,Salmonella; CFU 10E + 7,96 RU
Cl [HCl],detachment of bacteria bound to collagen,[1],no effect
O=C(O)CC(O)(CC(=O)O)C(=O)O [citric acid],detachment of bacteria bound to collagen,[1],no effect
"N=C(N)N [Guanidine, guanidine]",bactericidal effect,bacteria,bactericidal
same,detachment of bacteria bound to collagen,[1],very effective detachment agent
same,Surface RU removed from the sensor surface,Salmonella; CFU 0,−137 RU
same,Surface RU removed from the sensor surface,Salmonella; CFU 10E + 4,−100 RU
same,Surface RU removed from the sensor surface,Salmonella; CFU 10E + 5,−54 RU
same,Surface RU removed from the sensor surface,Salmonella; CFU 10E + 6,−22 RU
same,Surface RU removed from the sensor surface,Salmonella; CFU 10E + 7,−32 RU
O=P(O)(O)O [Phosphoric acid],detachment of bacteria bound to collagen,[1],no effect
collagen,"affinity constant of collagen to E. coli binding, mean",E. coli O157:H7 surface,3e+08 M⁻¹
same,dissociation constants of bacteria and collagen binding,E. coli and Salmonella,10^−8 to 10^−9 KDMole
same,"affinity constants of collagen to E. coli and Salmonella binding, range",E. coli and Salmonella; 12 trials (each),10^7 to 10^8 M^−1
same,"affinity constant of collagen to Salmonella binding, mean",[2],2.75e+07 M⁻¹
CN(CC(=O)O)C(=N)N [creatine],detachment of bacteria bound to collagen,[1],ineffective
